Assay results as given in US20080199451A1, “Composition for the Treatment and/or Prevention of Attacks by Biological Agents” (priority 2005, published 2008).

What was measured:
Cacopsylla pyri = assay: Field test on pear lice (Example 11); format: in vivo
Description: Pear plants with a high level of lice infestation were treated on May 6 and 20 2006. […]

[1] = tested on: European red mite Panonychus ulmi; assay: Ovicide activity on European red mite eggs on beet leaf discs (Example 6); format: in vivo; details: after 8 days; leaf discs immersed five seconds; oil 1.5%, meal 2 g l^−1, hexythiazox 50 mg p.a. l^−1
Description: Beet leaf discs measuring 60 mm were placed in a 90 mm diameter Petri dish and kept in a climatic cell at 24° C., 75% R.H. with 17 hours of light. Fifteen female mites were placed on each leaf disc to lay their eggs. The females were removed after 24 hours and the eggs were counted. Each group consisted of three leaf discs. The treatments were carried out with the “deep test” method: the leaf discs were immersed for five seconds in a suspension consisting of 1.5% vegetable oil, 1.5% vegetable oil+2 g l^−1 carinata meal, 1.5% UF mineral oil+2 g l^−1 carinata meal or the acaricide hexythiazox Matacar (Sipcam) at a dose of 50 mg p.a. I^−1. The control was immersed in water. The ovicide activity was assessed starting on the fourth day and every 2 days up to the eighth day, calculating the percentage of hatched eggs estimated indirectly by counting the live offspring.

Molecule | surviving offspring (Cacopsylla pyri; ten days after the first treatment) | offspring or nymphs found (Cacopsylla pyri; third observation (30 days after the second treatment)) | hatched eggs [1]
Abamectin | 22 | no offspring or nymphs were found | –
C[C@@H]1[C@@H](c2ccc(Cl)cc2)SC(=O)N1C(=O)NC1CCCCC1 [commercial acaricide, hexythiazox] | – | – | 23.4%
